“And” between values parts separate entries of the source, which are not always exact repeats. Equal entries are not always repeated.
Tests used:
Assay type in all cases: in vivo
Birdseye Speedwell [1] = experiment: pre-emergence herbicide test; details: pre-emergence, 0.25 lb/A; read-out: % plant inhibition
In short: (§1)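 Read-out is percent inhibition at approximately 14 days after seeding and treating. Seeds sat on compacted topsoil beneath a cover layer containing compound in acetone or water, with greenhouse bottom-watering.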

Green Foxtail [2] = experiment: pre-emergence herbicide test; details: Setaria viridis, pre-emergence; 0.25 lb/A; read-out: % plant inhibition
In short: as §1

Wild Oats [3] = experiment: pre-emergence herbicide test; details: Avena fatua, pre-emergence, 0.25 lb/A; read-out: % plant inhibition
In short: as §1

Blackgrass [4] = experiment: pre-emergence herbicide test; details: Alopecurus myosuroides, pre-emergence, 0.25 lb/A; read-out: % plant inhibition
In short: as §1

Barnyardgrass [5] = experiment: pre-emergence herbicide test; details: 0.25 lb/A; for inhibition at 280.212 g/ha: Echinochloa crus-galli, pre-emergence, read-out: % plant inhibition
In short: as §1

Corn [6] = experiment: pre-emergence herbicide test; details: 0.25 lb/A; for inhibition at 280.212 g/ha: Zea mays, pre-emergence, read-out: % plant inhibition
In short: as §1

Rape [7] = experiment: pre-emergence herbicide test; details: pre-emergence, 0.25 lb/A; read-out: % plant inhibition
In short: as §1

Bedstraw Catchweed [8] = experiment: pre-emergence herbicide test; details: Galium aparine, pre-emergence, 0.25 lb/A; read-out: % plant inhibition
In short: as §1

Seedling Johnsongrass [9] = experiment: pre-emergence herbicide test; details: 0.25 lb/A; for inhibition at 280.212 g/ha: Sorghum halepense, pre-emergence, read-out: % plant inhibition
In short: as §1

Wheat [10] = experiment: pre-emergence herbicide test; details: Triticum aestivum, pre-emergence, 0.25 lb/A; read-out: % plant inhibition
In short: as §1

Downy Brome [11] = experiment: pre-emergence herbicide test; details: Bromus tectorum, pre-emergence, 0.25 lb/A; read-out: % plant inhibition
In short: as §1

Velvetleaf [12] = experiment: pre-emergence herbicide test; details: 0.25 lb/A; for inhibition at 280.212 g/ha: Abutilon theophrasti, pre-emergence, read-out: % plant inhibition
In short: as §1

Common Chickweed [13] = experiment: pre-emergence herbicide test; details: pre-emergence, 0.25 lb/A; read-out: % plant inhibition
In short: as §1

Giant Foxtail [14] = experiment: pre-emergence herbicide test; details: 0.25 lb/A; for inhibition at 280.212 g/ha: Setaria faberi, pre-emergence, read-out: % plant inhibition
In short: as §1

Birdseye Speedwell [15] = experiment: post-emergence herbicide test; details: post-emergence, 0.25 lb/A; read-out: % plant inhibition
In short: (§2)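 Sown pans kept on a greenhouse bench with irrigation or subirrigation until plants reached two to three weeks, then sprayed at 170.3 kPa (10 psig). Spray mix held about 0.4% by volume emulsifier; total volume 1870 L/Ha. Result expressed as percent inhibition.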

Green Foxtail [16] = experiment: post-emergence herbicide test; details: Setaria viridis, post-emergence, 0.25 lb/A; read-out: % plant inhibition
In short: as §2

Wild Oats [17] = experiment: post-emergence herbicide test; details: Avena fatua, post-emergence, 0.25 lb/A; read-out: % plant inhibition
In short: as §2

Blackgrass [18] = experiment: post-emergence herbicide test; details: Alopecurus myosuroides, post-emergence, 0.25 lb/A; read-out: % plant inhibition
In short: as §2

Barnyardgrass [19] = experiment: post-emergence herbicide test; details: Echinochloa crus-galli, post-emergence, 0.25 lb/A; read-out: % plant inhibition
In short: as §2

Cocklebur [20] = experiment: post-emergence herbicide test; details: Xanthium strumarium, post-emergence, 0.25 lb/A; read-out: % plant inhibition
In short: as §2

Corn [21] = experiment: post-emergence herbicide test; details: Zea mays, post-emergence, 0.25 lb/A; read-out: % plant inhibition
In short: as §2

Rape [22] = experiment: post-emergence herbicide test; details: post-emergence, 0.25 lb/A; read-out: % plant inhibition
In short: as §2

Soybean = experiment: post-emergence herbicide test; details: Glycine max, post-emergence, 0.25 lb/A; read-out: % plant inhibition
In short: as §2

Bedstraw Catchweed [23] = experiment: post-emergence herbicide test; details: Galium aparine, post-emergence, 0.25 lb/A; read-out: % plant inhibition
In short: as §2

Seedling Johnsongrass [24] = experiment: post-emergence herbicide test; details: Sorghum halepense, post-emergence, 0.25 lb/A; read-out: % plant inhibition
In short: as §2

Wheat [25] = experiment: post-emergence herbicide test; details: Triticum aestivum, post-emergence, 0.25 lb/A; read-out: % plant inhibition
In short: as §2

Downy Brome [26] = experiment: post-emergence herbicide test; details: Bromus tectorum, post-emergence, 0.25 lb/A; read-out: % plant inhibition
In short: as §2

Morning Glory [27] = experiment: post-emergence herbicide test; details: Ipomoea, post-emergence, 0.25 lb/A; read-out: % plant inhibition
In short: as §2

Velvetleaf [28] = experiment: post-emergence herbicide test; details: Abutilon theophrasti, post-emergence, 0.25 lb/A; read-out: % plant inhibition
In short: as §2

Common Chickweed [29] = experiment: post-emergence herbicide test; details: post-emergence, 0.25 lb/A; read-out: % plant inhibition
In short: as §2

Giant Foxtail [30] = experiment: post-emergence herbicide test; details: Setaria faberi, post-emergence, 0.25 lb/A; read-out: % plant inhibition
In short: as §2

Cocklebur [31] = experiment: pre-emergence herbicide test; details: 0.25 lb/A; for inhibition at 280.212 g/ha: Xanthium strumarium, pre-emergence, read-out: % plant inhibition
In short: as §1

Morning Glory [32] = experiment: pre-emergence herbicide test; details: 0.25 lb/A
In short: as §1

With `COC(=O)c1cc(-c2nn(C)c(C(F)(F)F)c2C)c(F)cc1Cl` [Compound 18] the inhibition at 280.212 g/ha (Birdseye Speedwell [1]) was 100%, the inhibition at 280.212 g/ha (Green Foxtail [2]) was 100% and the inhibition at 280.212 g/ha (Wild Oats [3]) was 80%. For the same compound, the inhibition at 280.212 g/ha (Blackgrass [4]) was 95%, the “% plant inhibition” value (Barnyardgrass [5]) was 99% and 93% and the inhibition at 280.212 g/ha (Barnyardgrass [5]) was 95%. It also gave an inhibition at 280.212 g/ha (Corn [6]) of 15%, an inhibition at 280.212 g/ha (Rape [7]) of 100% and an inhibition at 280.212 g/ha (Bedstraw Catchweed [8]) of 100%. The “% plant inhibition” value (Seedling Johnsongrass [9]) was 95% and 85%, the inhibition at 280.212 g/ha (Seedling Johnsongrass [9]) was 90% and the inhibition at 280.212 g/ha (Wheat [10]) was 0%. For the same compound, the inhibition at 280.212 g/ha (Downy Brome [11]) was 85%, the “% plant inhibition” value (Velvetleaf [12]) was 100% and the inhibition at 280.212 g/ha (Velvetleaf [12]) was 98%. For the same compound, the inhibition at 280.212 g/ha (Common Chickweed [13]) was 100%, the “% plant inhibition” value (Giant Foxtail [14]) was 100% and 99% and the inhibition at 280.212 g/ha (Giant Foxtail [14]) was 95%. The inhibition at 280.212 g/ha (Birdseye Speedwell [15]) was 60%, the inhibition at 280.212 g/ha (Green Foxtail [16]) was 20% and the inhibition at 280.212 g/ha (Wild Oats [17]) was 20%. The inhibition at 280.212 g/ha (Blackgrass [18]) was 20%, the inhibition at 280.212 g/ha (Barnyardgrass [19]) was 5% and the inhibition at 280.212 g/ha (Cocklebur [20]) was 65%. It also gave an inhibition at 280.212 g/ha (Corn [21]) of 15%, an inhibition at 280.212 g/ha (Rape [22]) of 15% and an inhibition at 280.212 g/ha (Soybean) of 40%. It also gave an inhibition at 280.212 g/ha (Bedstraw Catchweed [23]) of 65%, an inhibition at 280.212 g/ha (Seedling Johnsongrass [24]) of 35% and an inhibition at 280.212 g/ha (Wheat [25]) of 7%. It also gave an inhibition at 280.212 g/ha (Downy Brome [26]) of 25%, an inhibition at 280.212 g/ha (Morning Glory [27]) of 50% and an inhibition at 280.212 g/ha (Velvetleaf [28]) of 90%. It also gave an inhibition at 280.212 g/ha (Common Chickweed [29]) of 35% and an inhibition at 280.212 g/ha (Giant Foxtail [30]) of 5%.
With `CCCOC(=O)c1cc(-c2nn(C)c(C(F)(F)F)c2C)c(F)cc1Cl` [Compound 19] the inhibition at 280.212 g/ha (Birdseye Speedwell [1]) was 100%, the inhibition at 280.212 g/ha (Green Foxtail [2]) was 100% and the inhibition at 280.212 g/ha (Wild Oats [3]) was 75%. For the same compound, the inhibition at 280.212 g/ha (Blackgrass [4]) was 95%, the “% plant inhibition” value (Barnyardgrass [5]) was 95% and the inhibition at 280.212 g/ha (Barnyardgrass [5]) was 98%. For the same compound, the “% plant inhibition” value (Cocklebur [31]) was 70%, the inhibition at 280.212 g/ha (Cocklebur [31]) was 60% and the “% plant inhibition” value (Corn [6]) was 28%. It also gave an inhibition at 280.212 g/ha (Corn [6]) of 25%, an inhibition at 280.212 g/ha (Rape [7]) of 50% and an inhibition at 280.212 g/ha (Bedstraw Catchweed [8]) of 80%. The “% plant inhibition” value (Seedling Johnsongrass [9]) was 85%, the inhibition at 280.212 g/ha (Seedling Johnsongrass [9]) was 95% and the inhibition at 280.212 g/ha (Wheat [10]) was 0%. For the same compound, the inhibition at 280.212 g/ha (Downy Brome [11]) was 40%, the “% plant inhibition” value (Velvetleaf [12]) was 98% and the inhibition at 280.212 g/ha (Velvetleaf [12]) was 90%. The inhibition at 280.212 g/ha (Common Chickweed [13]) was 100%, the “% plant inhibition” value (Giant Foxtail [14]) was 100% and the inhibition at 280.212 g/ha (Giant Foxtail [14]) was 99%. The inhibition at 280.212 g/ha (Birdseye Speedwell [15]) was 55%, the inhibition at 280.212 g/ha (Green Foxtail [16]) was 20% and the inhibition at 280.212 g/ha (Wild Oats [17]) was 20%. It also gave an inhibition at 280.212 g/ha (Blackgrass [18]) of 20%, an inhibition at 280.212 g/ha (Barnyardgrass [19]) of 65% and an inhibition at 280.212 g/ha (Cocklebur [20]) of 75%. The inhibition at 280.212 g/ha (Corn [21]) was 20%, the inhibition at 280.212 g/ha (Rape [22]) was 15% and the inhibition at 280.212 g/ha (Soybean) was 50%. It also gave an inhibition at 280.212 g/ha (Bedstraw Catchweed [23]) of 60%, an inhibition at 280.212 g/ha (Seedling Johnsongrass [24]) of 50% and an inhibition at 280.212 g/ha (Wheat [25]) of 10%. It also gave an inhibition at 280.212 g/ha (Downy Brome [26]) of 25%, an inhibition at 280.212 g/ha (Morning Glory [27]) of 35% and an inhibition at 280.212 g/ha (Velvetleaf [28]) of 90%. For the same compound, the inhibition at 280.212 g/ha (Common Chickweed [29]) was 50% and the inhibition at 280.212 g/ha (Giant Foxtail [30]) was 65%.
`CCOC(=O)c1cc(-c2nn(C)c(C(F)(F)F)c2C)c(F)cc1Cl` [Compound 26, 2-chloro-5-[1,4-dimethyl-5-(trifluoromethyl)-1H-pyrazol-3-yl]-4-fluorobenzoic acid ethyl ester] gave an inhibition at 280.212 g/ha (Birdseye Speedwell [1]) of 100%, an inhibition at 280.212 g/ha (Green Foxtail [2]) of 100% and an inhibition at 280.212 g/ha (Wild Oats [3]) of 65%. The inhibition at 280.212 g/ha (Blackgrass [4]) was 95%, the inhibition at 280.212 g/ha (Barnyardgrass [5]) was 100% and the “% plant inhibition” value (Cocklebur [31]) was 93% and 92%. It also gave an inhibition at 280.212 g/ha (Cocklebur [31]) of 85%, an inhibition at 280.212 g/ha (Rape [7]) of 40% and an inhibition at 280.212 g/ha (Bedstraw Catchweed [8]) of 50%. For the same compound, the inhibition at 280.212 g/ha (Seedling Johnsongrass [9]) was 100%, the inhibition at 280.212 g/ha (Wheat [10]) was 0% and the inhibition at 280.212 g/ha (Downy Brome [11]) was 55%. For the same compound, the “% plant inhibition” value (Morning Glory [32]) was 97% and 98%, the inhibition at 280.212 g/ha (Morning Glory [32]; Ipomoea, pre-emergence, read-out: % plant inhibition) was 90% and the inhibition at 280.212 g/ha (Velvetleaf [12]) was 100%. For the same compound, the inhibition at 280.212 g/ha (Common Chickweed [13]) was 100%, the “% plant inhibition” value (Giant Foxtail [14]) was 100% and the inhibition at 280.212 g/ha (Giant Foxtail [14]) was 99%. The inhibition at 280.212 g/ha (Birdseye Speedwell [15]) was 85%, the inhibition at 280.212 g/ha (Green Foxtail [16]) was 60% and the inhibition at 280.212 g/ha (Wild Oats [17]) was 35%. It also gave an inhibition at 280.212 g/ha (Blackgrass [18]) of 35%, an inhibition at 280.212 g/ha (Barnyardgrass [19]) of 95% and an inhibition at 280.212 g/ha (Cocklebur [20]) of 85%. For the same compound, the inhibition at 280.212 g/ha (Corn [21]) was 25%, the inhibition at 280.212 g/ha (Rape [22]) was 60% and the inhibition at 280.212 g/ha (Soybean) was 75%. It also gave an inhibition at 280.212 g/ha (Bedstraw Catchweed [23]) of 60%, an inhibition at 280.212 g/ha (Seedling Johnsongrass [24]) of 50% and an inhibition at 280.212 g/ha (Wheat [25]) of 17%. The inhibition at 280.212 g/ha (Downy Brome [26]) was 45%, the inhibition at 280.212 g/ha (Morning Glory [27]) was 50% and the inhibition at 280.212 g/ha (Velvetleaf [28]) was 99%. It also gave an inhibition at 280.212 g/ha (Common Chickweed [29]) of 85% and an inhibition at 280.212 g/ha (Giant Foxtail [30]) of 45%.

From patent US5672715A, “Herbicidal substituted 3-aryl-pyrazoles” (Monsanto Company, priority 1995, dated 1997)
